Laboratory results taken from US20190336504A1, “TREATMENT AND PREVENTION OF CYTOKINE RELEASE SYNDROME USING A CHIMERIC ANTIGEN RECEPTOR IN COMBINATION WITH A KINASE INHIBITOR” (Novartis AG, priority 2016, published 2019).
Read-outs that look alike come from different tables or passages of the source.

Legend:
AML = conditions: summary statement
primary AML blasts = type: in vivo
Procedure: For the development of CRS preclinical models, NOD-SCID-γ chain−/− (NSG) transgenic for human interleukin-3, stem cell factor and granulocyte macrophage colony-stimulating factor (NSG-S) were used. These were purchased from the Stem Cell and Xenograft Core of the University of Pennsylvania (originally obtained from Jackson Laboratories). Schemas of the utilized xenograft models are discussed in detail in the relevant figures and the Results section herein. Cells were injected in 200 ul of phosphate-buffered saline at the indicated concentration into the tail veins.
Ruxolitinib was purchased from Selleckchem, dissolved in DMSO and diluted to the indicated concentrations. […] Blood. […] Blood. […] Blood. 2016.
See, e.g., Gill S, Tasian S K, Ruella M, et al. Preclinical targeting of human acute myeloid leukemia and myeloablation using chimeric antigen receptor-modified T cells. Blood. 2014; 123:2343-2354. In particular, NSG-S mice were engrafted with primary AML blasts (5×10^6) and bled after 2-4 weeks to confirm engraftment. Mice then were treated with high doses of CART123 1×10^6 by intravenous tail vein single injection and monitored with serial clinical examinations, weight recording and retro-orbital bleedings for leukemia burden assessment and cytokine analysis. […] (CART123 were injected on day 41 post AML injection in the experiment.)
The experiments in this Example investigated ruxolitinib as a modality to prevent or reduce CRS severity after CART123 in the AML xenograft model described herein. NSGS mice were engrafted with primary AML blasts (5×10^6) and bled after 2-4 weeks to confirm peripheral blood engraftment. NSGS mice bearing primary AML were treated with CART123 (1×10^6) by intravenous tail vein single injection along with ruxolitinib or vehicle control. The mice were randomized to receive different doses of ruxolitinib (30 mg/kg, 60 mg/kg or 90 mg/kg) or vehicle by oral gavage twice a day. Treatment started on the day of CART123 injection and continued for a week (FIG. 2A). Mice were then monitored with serial clinical examinations, weight recording, retro-orbital bleedings for leukemia burden assessment and cytokine analysis and followed for survival.

B cell neoplasms = type: in vivo, mice
Source text: For FIGS. 3C-3E, all graphs were representative of two independent experiments (5 mice per group). Student's t-test was used to compare two groups. Survival curves were compared using the log-rank test. Asterisks represent p-values (*=<0.05, **=<0.01, ***=<0.001, ****=<0.0001) and “ns” means “not significant” (p>0.05).
(§1) All graphs in FIGS. 4B-4F are representative of two independent experiments (5 mice per group). Student's t-test was used to compare two groups; in analysis where multiple groups were compared, one-way analysis of variance (ANOVA) was performed with Holm-Sidak correction for multiple comparisons. Survival curves were compared using the log-rank test. Asterisks represent p-values (*=<0.05, **=<0.01, ***=<0.001, ****=<0.0001) and “ns” means “not significant” (p>0.05).

primary MCL cells [1] = assay: Cytokine production of primary MCL cells incubated for 24 hours with ibrutinib; type: cell-based; conditions: FIG. 4F
Procedure: as §1

primary MCL cells [2] = type: in vivo, NOD-SCID gamma-chain deficient mice (NSG)
Procedure: This example describes the development of such a model generated by intravenously injecting NOD-SCID gamma-chain deficient mice (NSG) with primary MCL cells collected from a patient with relapsed MCL (FIG. 3A). NOD SCID Gamma-chain deficient mice were injected with 2×10^6 primary MCL cells intravenously. […] Mice were then followed up for clinical signs, T cell engraftment, tumor burden and survival.
NOD SCID Gamma-chain deficient mice were injected with 2×10^6 primary MCL cells intravenously. […] Mice were then followed up for clinical signs, T cell engraftment, tumor burden and survival. […] See, e.g., Ruella et al. Clin Cancer Res 2016; 10.1158/1078-0432.CCR-15-1527.

## N#CC[C@H](C1CCCC1)n1cc(-c2ncnc3[nH]ccc23)cn1 [ruxolitinib, (3R)-3-cyclopentyl-3-[4-(7H-pyrrolo[2,3-d]pyrimidin-4-yl)pyrazol-1-yl]propanenitrile]
AML; CART cell therapy for hematological cancers, such as AML
  cytokine release syndrome (CRS) after CART cell therapy: ameliorate cytokine release syndrome (CRS) severity or prevent CRS
AML; combination with JAK-STAT kinase inhibitor
  anti-tumor effect of the CART therapy: without significantly impairing
Primary AML blasts; 70 days post AML injection, live human CD45 positive cells
  leukemia in peripheral blood of surviving mice: all surviving mice had eradication of leukemia
Primary AML blasts; all groups: CART123 + ruxolitinib 30, 60 or 90 mg/kg or vehicle
  anti-leukemic effect: equivalent anti-leukemic effect
Primary AML blasts; ruxolitinib 60 mg/kg + CART123
  T cell expansion in the peripheral blood: blunted T cell expansion
  leukemia burden: leukemia eradication
  levels of inflammatory cytokines: reduced levels of inflammatory cytokines
  weight loss: transient weight loss
Primary AML blasts; ruxolitinib 60 mg/kg + high dose CART123
  survival: long-term disease free survival
Primary AML blasts; ruxolitinib 60 mg/kg oral gavage twice a day for a week + CART123, vs CART123 alone or + 30 mg/kg
  clinical illness (CRS) manifested by weight loss: less severe clinical illness
Primary AML blasts; ruxolitinib 90 mg/kg oral gavage twice a day for a week + CART123, vs CART123 alone or + 30 mg/kg
  clinical illness (CRS) manifested by weight loss: less severe clinical illness
Primary AML blasts; ruxolitinib with CART123
  direct anti-tumor activity: no direct anti-tumor activity
  effect on anti-tumor activity of CART123: did not impair

## C=CC(=O)N1CCC[C@@H](n2nc(-c3ccc(Oc4ccccc4)cc3)c3c(N)ncnc32)C1 [ibrutinib, 1-[(3R)-3-[4-Amino-3-(4-phenoxyphenyl)-1H-pyrazolo[3,4-d]pyrimidin-1-yl]piperidin-1-yl]prop-2-en-1-one]
B cell neoplasms; CART19-treated mice, ibrutinib or vehicle treatment, FIG. 4D
  T cell expansion: augmented
B cell neoplasms; CD19 CAR therapy for B cell neoplasms, summary statement
  CRS after a CD19 CAR therapy: improve or prevent CRS
B cell neoplasms; mice treated with CART19+ibrutinib vs CART19, FIG. 4E
  serum cytokines involved in CRS (Luminex): significant reduction
B cell neoplasms; mice treated with CART19 plus ibrutinib (vs CART19 plus vehicle), FIG. 4B, log-rank test
  overall survival: significantly increased
Primary MCL cells [1]
  cytokine production: significant cytokine production in a dose-dependent manner
Primary MCL cells [2]; CART19 + ibrutinib 125 mg/Kg/day in drinking water vs CART19 alone
  overall survival (OS): prolonged overall survival
Primary MCL cells [2]; CART19 + ibrutinib vs CART19 alone
  CART19 expansion in the PB: augmented
Primary MCL cells [2]; day 4, ibrutinib-treated mice
  cytokines in the peripheral blood (IL-6, IFNg, TNFα, IL-2, GM-CSF): significantly reduced
